For this experiment, the system named is KB. The experiment can be described thus: Cytotoxicity against human KB cells. It is filed as functional, cell-based.
Take `CCCCCCCCCCCC[C@@H](O)[C@H]1CC[C@H]([C@H](O)CC(CCCCC(=O)CCCCCCCC2=C[C@H](C)OC2=O)OC(C)=O)O1` (some centres undefined) [PLAGIONEURIN C]: the half-maximal inhibitory concentration (IC50) is 26 nM.

`CCCCCCCCCCCC[C@@H](O)[C@H]1CC[C@H]([C@H](O)CC(CCCCC(=O)CCCC[C@@H](O)CCC2=C[C@H](C)OC2=O)OC(C)=O)O1` (some centres undefined) [PLAGIONEURIN D] came in with an IC50 of 2.8 nM. Consider `CCCCCCCCCCCC[C@@H](O)[C@H]1CC[C@H]([C@H](O)CCCCC(O)CCCC[C@@H](O)CCC2=C[C@H](C)OC2=O)O1` (some centres undefined) [PLAGIONICIN A], for which 2 nM corresponded to half-maximal inhibition (IC50). Regarding `CCCCCCCCCCCC[C@@H](O)[C@H]1CC[C@@H]([C@@H](O)CCCCC(=O)CCCCC(O)CCC2=C[C@H](C)OC2=O)O1` (some centres undefined) [PLAGIONICIN B], the IC50 came out at 1400 nM. As for `CCCCCCCCCCCC[C@@H](O)[C@H]1CC[C@H]([C@H](O)CC(CCCCC(=O)CCCCC(O)CCC2=C[C@H](C)OC2=O)OC(C)=O)O1` (some centres undefined) [PLAGIONEURIN E], the figure is 2.6 nM; as for `CCCCCCCCCCCC[C@@H](O)[C@H]1CC[C@H]([C@H](O)CCCC(O)C(O)CCCCC(=O)CCC2=C[C@H](C)OC2=O)O1` (some centres undefined) [PLAGIONICIN D], 26 nM. As for `CCCCCCCCCCCC[C@@H](O)[C@H]1CC[C@H]([C@H](O)CC(CCCCC(O)CCCCCCCC2=C[C@H](C)OC2=O)OC(C)=O)O1` (some centres undefined) [PLAGIONEURIN A], the figure is 2.4 nM; as for `CCCCCCCCCCCC[C@H](O)[C@H]1CC[C@H]([C@@H](O)CC(CCCCC(O)CCCCCCCC2=C[C@H](C)OC2=O)OC(C)=O)O1` (some centres undefined) [PLAGIONEURIN B], 6.5 nM. In turn, `CCCCCCCCCCCC[C@@H](O)[C@H]1CC[C@@H]([C@@H](O)CCCC(O)CCCCCC(O)C(O)CC2=C[C@H](C)OC2=O)O1` (some centres undefined) [PLAGIONICIN C] yielded an IC50 of 6 nM.

The values are drawn from ChEMBL document CHEMBL1158054, “Cytotoxic monotetrahydrofuran acetogenins from Disepalum plagioneurum” (J Nat Prod, 2006).
